Patent US5141960A, “Tricyclic glycinamide derivatives as anti-convulsants” (G. D. Searle & Co., priority 1991, dated 1992)

What was measured:
[1] = tested on: convulsions and death induced by 3-mercaptopropionic acid; assay: 3-Mercaptopropionic acid (3-MPA) induced convulsions; format: in vivo, male Swiss albino mice (CD1); conditions: for 3-MPA score: total number of mice protected for two groups of 5 animals, 30 min: 30 min before convulsions induced; for activity as inhibitors of tonic convulsions: overall, 3-MPA induced, oral, mice
Protocol: (§1) Treatment of a mammal afflicted by or susceptible to certain CNS disorders is accomplished by administration of a therapeutically-effective amount of a compound of Formula I. In particular, compounds 1-3 of Table 1 were evaluated by in vitro and in vivo animal model assays to determine the pharmacological properties of such compounds and their suitability for use as therapeutic drugs in humans. These biological assays, as described below, consisted of prevention of induced convulsions in mice, a TCP binding study in rat brain, determination of acute toxicity in mice and an animal behavior assay. Except as otherwise specified, the animals used in the in vivo test were male Swiss albino mice of weight 22 to 33 g [CD1, Charles River, France], housed in groups of 10 on a 12-hour dark-light cycle for at least one week and fasted overnight prior to testing.
Compounds of Formula I were examined as inhibitors of convulsions and death induced by the convulsant agent 3-mercaptopropionic acid (3-MPA, 120 mg/kg subcutaneously) [W. van Dorsser, D. Barris, A. Cordi and J. Roba, Arch. Int. Pharmacodyn., 266, 239-249 (1983)]. The compounds of the invention were administered orally at a dosage of either 100 mg/kg or 30 mg/kg in a volume of 10 ml/kg each to 5 mice, at intervals of 30 minutes or 2 hours before convulsions were induced. The number of mice protected against tonic convulsions and the number of dead mice were noted. Results are given in Table II as a score which represents the total number of mice protected for two groups of 5 animals (3-MPA).

[2] = target: TCP (1-[1-(2-thienyl)cyclohexyl]piperidine) binding in rat brain synaptic membranes (SPM); assay: TCP binding study; conditions: 2 nM tritiated TCP, pH 7.4, 25° C., 60 min
Protocol: The effect of compounds of Formula I on TCP (1-[1-(2-thienyl)cyclohexyl]piperidine) binding was measured in rat brain synaptic membranes (SPM) prepared by known methods [J. B. Monahan & J. Michel; J. Neurochem., 48, 1699-1708 (1987)]. Prior to their use in the binding assay, frozen SPM were thawed, then diluted twenty fold with 50 mM Tris/acetate [pH 7.4, containing 0.04% (v/v) Triton X-100], incubated for 30 min. at 37° C. and centrifuged at 95,000 xg for 15 min. The Triton X-100 treated SPM were washed with 5 mM Tris/HCl (pH 7.4) and centrifuged a total of six times. Compound of the invention was incubated at differing concentrations with SPM (0.2-0.4 mg protein) and 2 nM tritiated TCP, in a total volume of 0.5 ml of 5 mM Tris/HCl buffer (pH 7.4) at 25° C. for 60 min. The samples were filtered through glass fiber filters (Schleicher & Schuell #32) which had been pretreated with 0.05% (v/v) polyethyleneimine, washed with 2 ml of ice-cold 5 mM Tris/HCl buffer, and then counted on a Beckman LS 5800 liquid scintillation counter with automatic corrections for quenching and counting efficiency. Inhibition of TCP binding was measured as a decrease in basal binding. […] TCP binding inhibition values (IC50) were calculated using logit-log analysis and calculations and regression analysis were performed using templates developed for Lotus 123 by known methods [L. M. Pullan, Computer Appli. […]

[3] = Acute toxicity (LD50, oral); parameters: species or system male mice; conditions: mouse, in vivo, mice, mortality over 15 days
Protocol: as §1
The acute toxicity was determined after oral administration of the test compound to mice. […] Doses used in the test were determined by observing toxic effects on the mice, which doses varied from 3,000 mg/kg down to about 3 mg/kg. The mortality was recorded over a period of 15 days. The LD50 result in Table II was calculated according to published methods [Lichtfield and Wilcoxon, J. Pharmacol. Exp. Ther., 96, 99 (1949)] and is expressed in mg of test compound per kilogram of mouse body weight.

[4] = parameters: species or system mice; conditions: mouse, in vivo
Protocol: as §1
Behavioral effect of compounds of the invention on animals were determined by observations taken at 5 to 6 hours and at 24 hours after administration of compounds of the invention. Determinations were made based on a method derived from that of S. Irwin [See R. A. Turner, Screening Methods in Pharmacology, Chapter 3, pages 22-34, Academic Press, N.Y. (1965)]. If an anomaly were noted, the observation was extended and smaller doses were tested. […]

[5] = compound orally at 100 mg/kg or 30 mg/kg, 3-MPA 120 mg/kg s.c.

SMILES | 3-MPA score: total number of mice protected for two groups of 5 animals, 30 min [1, 5] | 3-MPA score: total number of mice protected for two groups of 5 animals, 2 hrs ([1]; compound orally at 100 mg/kg or 30 mg/kg, 2 hours before convulsions induced, 3-MPA 120 mg/kg s.c.) | activity as inhibitors of tonic convulsions [1] | IC50 [2] [µM] | LD50 at 360 h [3] [mg/kg] | Behavior: sedation (SED), dose at which the behavior is observed [4] [mg/kg] | Behavior: convulsions (CON), dose at which the behavior is observed [4] [mg/kg]
NC(=O)CNC1c2ccccc2CCc2ccccc21 [Compound 1, 2-(2,3-6,7-dibenzocycloheptanylamino)acetamide] | 10 | 10 | very good activity | 38 | 780 | 300 | 
NC(=O)CNC1c2ccccc2C=Cc2ccccc21 [Compound 2, 2-(2,3-6,7-dibenzocyclohept-4-enylamino)acetamide] | 3 |  |  |  |  |  | 1000
NC(=O)CNC1c2ccccc2CSc2ccccc21 (stereo not shown) [Compound 3, 2-(2,3-6,7-dibenzo-4-thiacycloheptanylamino)acetamide] | 10 |  | very good activity |  |  |  | 
